In PubChem BioAssay (NCI):
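Following 48 hours of exposure in 96-well plates, responses at five concentrations were used to interpolate endpoints linearly. The concentration for 50% growth inhibition is given as GI50. TGI is the concentration that stops growth completely.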

Columns and labels:
Assay in all cases: inhibition of tumour cell growth, NCI panel, 48 h
MOLT-4 leukemia = tested on: MOLT-4 leukemia
CCRF-CEM leukemia = tested on: CCRF-CEM leukemia
OVCAR-3 ovarian = tested on: OVCAR-3 ovarian
UO-31 renal = tested on: UO-31 renal
KM12 colon = tested on: KM12 colon
HOP-62 NSCLC = tested on: HOP-62 NSCLC
SR leukemia = tested on: SR leukemia
COLO 205 colon = tested on: COLO 205 colon
OVCAR-4 ovarian = tested on: OVCAR-4 ovarian
CAKI-1 renal = tested on: CAKI-1 renal

| SMILES | GI50 (MOLT-4 leukemia) [nM] | TGI (MOLT-4 leukemia) [µM] | GI50 (CCRF-CEM leukemia) [nM] | TGI (CCRF-CEM leukemia) [µM] | GI50 (OVCAR-3 ovarian) [nM] | TGI (OVCAR-3 ovarian) [µM] | GI50 (UO-31 renal) [nM] | TGI (UO-31 renal) [µM] | GI50 (KM12 colon) [nM] | TGI (KM12 colon) [µM] | GI50 (HOP-62 NSCLC) [nM] | TGI (HOP-62 NSCLC) [µM] | GI50 (SR leukemia) [nM] | TGI (SR leukemia) [µM] | TGI (COLO 205 colon) [µM] | TGI (OVCAR-4 ovarian) [µM] | TGI (CAKI-1 renal) [µM] | GI50 (OVCAR-4 ovarian) [nM] | GI50 (CAKI-1 renal) [nM] | GI50 (COLO 205 colon) [nM] |
| --- | --- | --- | --- | --- | --- | --- | --- | --- | --- | --- | --- | --- | --- | --- | --- | --- | --- | --- | --- | --- |
| COc1ccc(-c2csc(NC(=O)N3CCN(c4cc5c(cc4F)c(=O)c(C(=O)O)cn5C4CC4)CC3)n2)cc1 | 2540 | 9.42 | 1430 | 13.1 | 890 | 17.9 | 1620 | > 100 | 1630 | > 100 | 3020 | 32.6 | 1930 | 13 |  |  |  |  |  |  |
| C[Si](C)(C)/C=C\CCCN1C(=O)CCC1=O |  | > 100 |  | > 100 |  | > 100 |  | > 100 |  | > 100 |  |  |  | > 100 | > 100 |  |  |  |  |  |
| CC(C)Cc1ccc(C(C)/C=C2\CCC(CN3CCCC3)C2=O)cc1 (centres undefined) |  | 9.64 |  | 8.71 |  | 12.7 |  | 29.5 |  | 7.74 |  | 26.1 |  | 5.18 | 22.1 | 27.1 | 28 |  |  |  |
| N/C(=N\c1nc2ccccc2s1)NC(=O)Nc1ccccc1Cl | 167 | > 56.6 | 110 | > 42.8 | 85.7 | 0.594 | 197 | 21.2 | 127 | 12 | 190 | 26.7 | 41.1 | > 32.7 | 2.13 | 8.53 | 15.5 | 2710 | 62.4 | 151 |
| COc1ccc(C(=O)C(Br)C(Br)C(=O)O)cc1 (centres undefined) |  | 36.1 |  |  |  | 57.4 |  |  |  | > 100 |  | > 100 |  |  | 46.8 | > 100 | > 100 |  |  |  |
| S=P(c1ccccc1)(c1ccccc1)C1(C2(P(=S)(c3ccccc3)c3ccccc3)CC2)CC1 |  | > 100 |  | > 100 |  |  |  | > 100 |  | > 100 |  | > 100 |  | > 100 | > 100 | > 100 |  |  |  |  |
| O=C(COc1ccc(Cl)cc1)N1N=C(c2ccc([N+](=O)[O-])o2)CC1(O)c1ccccc1 (centres undefined) |  | 47.3 |  |  |  | 17.2 |  | 23.6 |  | 27.7 |  | 35.8 |  | 23.8 | 14.8 | 26.7 | > 100 |  |  |  |
| COc1cc([C@@H]2c3cc4c(cc3[C@@H](NCc3ccc(C#N)cc3)C3COC(=O)[C@@H]32)OCO4)cc(OC)c1O (some centres undefined) |  | 1.38 |  | 7.01 |  | 5.51 |  | 4.34 |  | 3.78 |  | 1.41 |  |  | 6.32 | > 100 | 8.83 |  |  |  |
| Cc1[nH]c2ccccc2c1C1CC(=O)NC1=O (centres undefined) |  | > 100 |  | > 100 |  | > 100 |  | > 100 |  | > 100 |  | > 100 |  |  |  | > 100 | > 100 |  |  |  |
| C/C(=N\NS(=O)(=O)c1ccc(C)cc1)c1c(O)cc(C)oc1=O |  | > 100 |  | > 100 |  |  |  | > 100 |  | > 100 |  | > 100 |  | > 100 |  | > 100 | > 100 |  |  |  |
| O=C(O)CN(c1ccccc1)S(=O)(=O)c1ccc(Cl)cc1 |  | > 100 |  | > 100 |  |  |  | > 100 |  |  |  |  |  |  | > 100 | > 100 | > 100 |  |  |  |
| COc1cc2ccc(/C(C)=N/OC(C)=O)cc2cc1OC |  | > 100 |  | > 100 |  | > 100 |  | 99.6 |  | > 100 |  |  |  |  | > 100 | > 100 |  |  |  |  |
| O=C1/C(=C/c2ccccc2Br)COc2ccc(O)c(O)c21 | 504 | 53.4 | 311 | 1.55 | 557 | 1.83 | 804 | 2.07 | 1610 | 4.78 | 2290 | 6.54 |  |  | 3.95 | 10.2 | 2.74 | 2350 | 1310 | 1960 |
| N#CC(C(=O)CCC(=O)Nc1ccc(Cl)cc1)c1ccccc1Cl (centres undefined) |  | > 100 |  | > 100 |  | > 100 |  | > 100 |  | > 100 |  |  |  |  | > 100 | > 100 | > 100 |  |  |  |
| COc1cc2c(=O)n(CCCn3ccnc3)c3c4cc5c(cc4ccc3c2cc1OC)OCO5 |  |  | 340 | > 100 | 344 | > 100 | 262 | > 100 | 1370 | > 100 | 305 | 5.37 | 203 | > 100 | > 100 |  |  |  |  | 291 |
| COc1cc2ccnc3c2c(c1OC)CC1CC(O)C(OC)CC31 (centres undefined) |  | > 100 |  | > 100 |  | > 100 |  | > 100 |  | > 100 |  | > 100 |  | > 100 | > 100 | > 100 |  |  |  |  |
| C[C@]12CC(C#N)C(=O)C(O)=C1CC[C@@H]1C2CC[C@@]2(C)C1CC[C@@H]2O (some centres undefined) |  | > 100 |  | > 100 |  | > 100 |  | 87.3 |  | > 100 |  | > 100 |  |  | > 100 | > 100 |  |  |  |  |
| CC(=O)NC1C(OCc2ccccc2)OC(COC(=O)CCCCCNc2ccc([N+](=O)[O-])c3[nH]c4ccc(O)cc4c(=O)c23)C(O)C1OC(C)C(=O)N[C@@H](C)C(=O)N[C@H](CCC(=O)OCc1ccccc1)C(N)=O (some centres undefined) |  | 5.56 |  | > 27.2 |  | 6.24 |  |  |  |  |  | 22.7 |  | 0.657 | 3.25 | 15.9 | 4.21 |  |  |  |
| CC1=C(/C=C/C2=CC(=C\C(=O)O)/CC(C3=C(C)CCCC3(C)C)C2)C(C)(C)CCC1 (centres undefined) |  | 21.7 |  |  |  | 27.1 |  | 22.5 |  | 24.1 |  | 27 |  | 24.2 | 30.7 | 28.1 | 29.5 |  |  |  |
| CC1Cc2c(N)nc(N3CCOCC3)nc2NC1=O (centres undefined) |  | > 100 |  | > 100 |  | > 100 |  | > 100 |  | > 100 |  | > 100 |  |  | > 100 |  |  |  |  |  |
